Data reported in ChEMBL document CHEMBL4477270, “Design, synthesis, and protein methyltransferase activity of a unique set of constrained amine containing compounds” (Bioorg Med Chem Lett, 2016).

These molecules were tested against T1, N-lysine methyltransferase KMT5A (Homo sapiens, UniProt Q9NQR1) (assay: Inhibition of SETD8 in HEK293T cells assessed as reduction in H4K20me level after 2 to 3 days by Western blot analysis).
T1 sequence (Q9NQR1 whole entry): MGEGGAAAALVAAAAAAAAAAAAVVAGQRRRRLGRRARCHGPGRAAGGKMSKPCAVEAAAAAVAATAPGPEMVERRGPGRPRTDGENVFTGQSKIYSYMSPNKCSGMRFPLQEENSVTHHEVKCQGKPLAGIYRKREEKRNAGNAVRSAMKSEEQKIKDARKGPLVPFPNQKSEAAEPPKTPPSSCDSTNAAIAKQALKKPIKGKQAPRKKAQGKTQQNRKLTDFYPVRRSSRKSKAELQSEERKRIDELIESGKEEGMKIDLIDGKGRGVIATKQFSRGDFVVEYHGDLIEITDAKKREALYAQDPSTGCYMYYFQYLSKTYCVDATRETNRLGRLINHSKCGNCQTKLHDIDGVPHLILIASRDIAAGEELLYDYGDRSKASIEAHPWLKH
Assay type: cell-based

`O=C1C(Cl)=C(NCCN2CCOCC2)C(=O)c2ncccc21` and `CC1(C)C(=O)N=C2C1=C(O)C(=O)c1ccccc12` cannot be ordered by EC50: less than 5 µM for the first, less than 5 µM for the second.

With `Cc1ccc(/N=C2\CC(=O)c3sc(C)nc3C2=O)cc1` the EC50 was less than 1 µM.
